Measurements as given in patent US10280197B2, “Discovery of the first selective C5A receptor 2 (C5L2/C5AR2) ligands” (The Regents of the University of California, priority 2015, dated 2019).

Tests used:
[1] = target: T1, human C5a2 (Flp-In CHO-C5a2 membranes) (Homo sapiens, UniProt Q9P296); assay: C5a2 receptor binding, scintillation proximity assay (125I-C5a displacement); conditions: for Ki: inhibition of 125I-C5a binding to C5a2 membranes; for inhibition of 125I-C5a binding to C5a2 membranes, library screen: single concentration of 100 μM, compared to buffer control, P<0.05; for inhibition of 125I-C5a binding to C5aR2 membranes, full concentration response: up to a maximum concentration of 500 μM
T1 construct: expressed in transfected cells
T1 sequence (Q9P296 whole entry): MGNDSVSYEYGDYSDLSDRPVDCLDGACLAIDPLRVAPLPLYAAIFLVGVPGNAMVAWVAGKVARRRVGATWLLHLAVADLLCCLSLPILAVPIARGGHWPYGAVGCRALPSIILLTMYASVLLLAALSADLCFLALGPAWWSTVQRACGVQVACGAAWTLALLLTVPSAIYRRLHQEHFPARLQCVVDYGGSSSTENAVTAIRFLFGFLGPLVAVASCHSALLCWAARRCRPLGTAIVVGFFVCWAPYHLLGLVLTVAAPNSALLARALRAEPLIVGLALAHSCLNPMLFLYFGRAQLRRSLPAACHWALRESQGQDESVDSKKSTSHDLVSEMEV
Procedure: Membranes were prepared from Flp-In CHO-05a2 cells by a previously described method^46. Briefly, cells were washed with PBS, pH 7.4, and harvested into buffer (50 mM Tris-HCl, pH 7.4, 5 mM MgCl2, 1 mM CaCl2) before homogenizing with a Polytron homogenizer for 3 min on setting 22. Cells were centrifuged at 150×g for 5 min at 4° C. The supernatant was recovered and centrifuged at 22 000×g for 1 h at 4° C. Membrane pellets were then resuspended in 0.4 mL of ice-cold buffer (50 mM Tris-HCl, pH 7.4, 5 mM MgCl2, 1 mM CaCl2, containing 10% glycerol) with aliquots stored at −80° C. The protein concentration of the membrane preparation was determined by Bradford method^47.
C5a2 receptor binding studies were performed using a modification of a previously described scintillation proximity assay (SPA) method^48. Briefly, C5a2 SPA studies were performed in 96-well white isoplates with clear flat bottoms (Perkin Elmer, Waltham, Mass., USA). SPA beads (200 μg/well) were added, following the addition of various concentrations of competing ligands or buffer (6 pM to 500 μM) in a total volume of 80 μL of assay buffer (50 mM Tris-HCl, pH 7.4, 0.5% BSA, 5 mM MgCl2, 1 mM CaCl2). ^125I-C5a (˜20 pM) (specific activity, 2200 Ci mmol^−1) (Perkin Elmer) was added to C5a2 membrane preparations (˜2 μg/well). The final reaction volume per well comprised 20 μL of ligand/buffer, 20 μL of SPA beads, 20 μl of membrane and the assay was initiated by the addition of 20 μL of ^125I-C5a. The plate was then sealed using TopSeal-A (Perkin Elmer) sealing film and incubated with shaking for 1 h at room temperature. Radioligand binding was then assessed for 30 s/well using a 1450 Microbeta scintillation counter (Perkin Elmer).

C5a2 [2] = target: T2, C5a2 (Homo sapiens, UniProt Q9P296); assay: DiscoveRx PathHunter β-arrestin 2 recruitment, C5a2; assay type: cell-based; design: purchased DiscoveRx Corporation (Birmingham, UK); conditions: 100 μM, data not shown
Target sequence in this assay (Q9P296 whole entry): as above

C5a2 [3] = target: T2, C5a2; assay: BRET C5a2-β-arrestin 2 recruitment assay in HEK293 cells; assay type: cell-based; design: expressed in transfected cells; host or cells: HEK293 (transient); conditions: for efficacy for β-arrestin 2 recruitment relative to affinity for C5a2: EC50 versus Ki; for EC50: calculated at ~40 min after ligand addition; for type of activity for recruitment of β-arrestin 2 via C5a2: compared to C5a
Procedure: (§1) Assays were performed as a ligand-induced BRET experiment similar to previously described^17, 31, 49. In brief, HEK293 cells were transiently transfected with either C5a1-Rluc8 and β-arrestin 2-Venus or C5a2-Venus and β-arrestin 2-Rluc8 or C5a1-Rluc8 and C5a2-Venus in a 100-mm dish. 24 h after transfection cells were collected and transferred to a 96-well white microplate (Corning, N.Y., USA) in phenol-red free DMEM containing 5% FBS and 25 mM HEPES (Life Technologies). Cells were allowed to settle for 24 h and then were incubated with 30 μM Enduren (Promega, Madison, Wis., USA) for 2 h at 37° C. and 5% CO2 to ensure that the substrate had reached equilibrium. Following incubation BRET baseline measurements were taken for 15 min then ligands were added to plate and BRET measurements were taken for a further 1 h at 37° C. using a POLARstar optima microplate reader (BMG Labtech, Ortenberg, Germany). Filtered light emissions were sequentially measured for 1 s in each of the following windows 460-490 nm and 520-550 nm, both before and following ligand addition. The ligand-induced BRET ratio was calculated by subtracting the ratio of 520-550 nm emission over the 460-490 nm emission for a vehicle-treated sample from a ligand-treated sample of the same aliquot of cells in triplicate. The BRET ratio was calculated by subtracting the ratio of 520-550 nm emission over the 460-490 nm emission for a cell sample containing the C5a1-Rluc8 or β-arrestin 2-Rluc8 construct from a cell sample containing both the C5a1-Rluc8 and β-arrestin 2-Venus or C5a2-Venus and β-arrestin 2-Rluc8 or C5a1-Rluc8 and C5a2-Venus constructs. Peptides were also tested for ligand-induced β-arrestin 2 recruitment at 100 μM using DiscoveRx PathHunter kits for human C5a1 and C5a2 (DiscoveRx Corporation. Birmingham, UK), according to the manufacturer's instructions.
Target sequence in this assay (Q9P296 whole entry): as above
Target sequence in this assay (P32121 whole entry partner): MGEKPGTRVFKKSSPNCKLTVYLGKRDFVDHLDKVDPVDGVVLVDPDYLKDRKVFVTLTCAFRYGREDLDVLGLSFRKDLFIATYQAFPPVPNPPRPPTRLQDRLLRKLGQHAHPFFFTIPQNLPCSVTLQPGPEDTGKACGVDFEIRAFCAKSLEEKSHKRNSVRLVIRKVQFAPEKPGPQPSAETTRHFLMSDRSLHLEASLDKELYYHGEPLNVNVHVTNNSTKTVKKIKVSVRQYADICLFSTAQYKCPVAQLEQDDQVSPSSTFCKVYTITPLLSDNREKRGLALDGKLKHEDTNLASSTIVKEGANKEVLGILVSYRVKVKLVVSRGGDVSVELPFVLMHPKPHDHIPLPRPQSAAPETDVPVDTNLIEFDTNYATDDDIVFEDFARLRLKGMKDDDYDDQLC

C5a1 = target: T3, C5a1 (Homo sapiens, UniProt P21730); assay: BRET β-arrestin 2 recruitment by C5a1 in HEK293 cells; assay type: cell-based; design: expressed in transfected cells; host or cells: HEK293 (transient); conditions: P32 or P59 100 μM
T3 sequence (P21730 1-350): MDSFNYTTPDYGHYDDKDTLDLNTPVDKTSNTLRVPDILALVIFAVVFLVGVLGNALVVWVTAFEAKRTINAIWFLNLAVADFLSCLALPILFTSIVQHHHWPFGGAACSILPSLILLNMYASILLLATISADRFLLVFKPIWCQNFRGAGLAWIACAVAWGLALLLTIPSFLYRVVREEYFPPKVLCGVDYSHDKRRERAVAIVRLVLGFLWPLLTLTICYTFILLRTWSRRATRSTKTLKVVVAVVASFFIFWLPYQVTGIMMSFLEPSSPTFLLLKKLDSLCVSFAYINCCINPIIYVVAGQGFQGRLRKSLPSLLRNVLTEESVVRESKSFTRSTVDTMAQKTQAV
Procedure: as §1, with “The BRET ratio was calculated by subtracting the ratio of 520-550 nm emission over the 460-490 nm emission for a cell sample containing the C5a1-Rluc8 or β-arrestin 2-Rluc8 construct from a cell sample containing both the C5a1-Rluc8 and β-arrestin 2-Venus or C5a2-Venus and β-arrestin 2-Rluc8 or C5a1-Rluc8 and C5a2-Venus constructs. Peptides were also tested for ligand-induced β-arrestin 2 recruitment at 100 μM using DiscoveRx PathHunter kits for human C5a1 and C5a2 (DiscoveRx Corporation. Birmingham, UK), according to the manufacturer's instructions.” left out

Ac-LIRLWR-OH [Peptide P59, Ac-LIRLWR-OH]
Ki [1]: 48 µM | affinity for C5aR2 over C5aR1 ([1]; ratio of C5aR1 and C5aR2 affinities): ~10 fold | inhibition of 125I-C5a binding to C5a2 membranes, library screen [1]: significant inhibition | inhibition of 125I-C5a binding to C5aR2 membranes, full concentration response [1]: dose-dependently inhibited | ligand induced β-arrestin 2 recruitment at C5a2 (PathHunter) (C5a2 [2]): showed activity at C5a2 | C5a2-β-arrestin 2 BRET Recruitment (% of C5a) (C5a2 [3]): 52.9 % of C5a | efficacy for β-arrestin 2 recruitment relative to affinity for C5a2 (C5a2 [3]): ~6 fold | EC50 (C5a2 [3]): 7.6 ± 0.6 µM | type of activity for recruitment of β-arrestin 2 via C5a2 (C5a2 [3]): partial agonists | β-arrestin 2 recruitment via C5a1 (C5a1): Neither, P32 or P59 could recruit β-arrestin 2 via C5a1

Ac-RHYPYWR-OH [Peptide P32, Ac-RHYPYWR-OH]
Ki [1]: 223 µM | inhibition of 125I-C5a binding to C5a2 membranes, library screen [1]: significant inhibition | inhibition of 125I-C5a binding to C5aR2 membranes, full concentration response [1]: dose-dependently inhibited | ligand induced β-arrestin 2 recruitment at C5a2 (PathHunter) (C5a2 [2]): showed activity at C5a2 | C5a2-β-arrestin 2 BRET Recruitment (% of C5a) (C5a2 [3]): 28.8 % of C5a | efficacy for β-arrestin 2 recruitment relative to affinity for C5a2 (C5a2 [3]): ~37 fold | EC50 (C5a2 [3]): 5.9 ± 3.4 µM | type of activity for recruitment of β-arrestin 2 via C5a2 (C5a2 [3]): partial agonists | β-arrestin 2 recruitment via C5a1 (C5a1): Neither, P32 or P59 could recruit β-arrestin 2 via C5a1
